Data on 24 compounds can be found in patent publication US7238716B2, “Alkanoic acid derivatives process for their production and use thereof” (Takeda Pharmaceuticals Company Limited, priority 2000, dated 2007).

The test system of data set [1] is KKA^y mice. The data set is described as follows: Total cholesterol lowering action and plasma anti-arteriosclerosis index enhancing action in mice (Test Example 2). The format is in vivo. As to conditions: Mus musculus, po, 96 h, four days; for change in vivo at 0.005 % / change in vivo at 0.01 %: percent increase of [(HDL cholesterol/total cholesterol)×100] vs non-administration group; for change in vivo at 0.005 % / inhibition in vivo at 0.005 %: 0.005% in powdery diet; for inhibition in vivo at 0.005 % / inhibition in vivo at 0.01 %: percent reduction of plasma total cholesterol level vs non-administration group; for change in vivo at 0.01 % / inhibition in vivo at 0.01 %: 0.01% in powdery diet. The text has this: Test compounds were mixed in a powdery diet (CE-2, Japan Clea) the concentration of 0.01% (compounds of Examples 7, 26, 29 and 32) or 0.005% (compounds of Examples 1, 11, 15, 18, 24, 36, 37, 41, 48, 50, 51, 52, 58, 62, 79, 88, 91, 92, 93, 97, 107, 110, 129 and 130), and freely given to KKA^y mice (11 to 12 weeks old, 5 mice per group), a model of type-2 diabetes mellitus, for four days. During this period, water was given freely. Blood was sampled from orbital venous plexus and components were analyzed using the plasma separated from the blood. Total cholesterol levels were determined by using L type Wako Cholesterol (Wako Pure Chemical Industries, Ltd). Precipitation reagent for HDL cholesterol (Wako Pure Chemical Industries, Ltd.) was added to a part of the plasma to precipitate non-HDL lipoprotein, and cholesterol (HDL cholesterol) in the resulting supernatant was determined. The plasma anti-arteriosclerosis index [(HDL cholesterol/total cholesterol)×100] was calculated by using these cholesterol levels.
In the Table, “Total cholesterol lowering action (%)” represents the percent reduction (%) of total cholesterol level in the test compound administration group, when the total cholesterol level in the test compound non-administration group is taken as 100%. “Plasma anti-arteriosclerosis index-enhancing action (%)” represents the percent increase (%) of plasma anti-arteriosclerosis index in the test compound administration group, when the plasma anti-arteriosclerosis index in the test compound non-administration group is taken as 100%.

What is called inhibition in vivo is the drop in the measured response relative to a control, in per cent. Broadly, the melting point is the temperature of the solid-liquid transition. Turning to `Cc1oc(-c2ccco2)nc1COc1ccc(COc2ccccc2CC(=O)O)cc1` [Example 50, 2-[2-[4-[[2-(2-furyl)-5-methyl-4-oxazolyl]methoxy]benzyloxy]phenyl]acetic acid], the melting point lay within 167 to 168 °C. Besides, in data set [1], the change in vivo at 0.005 % was 15% and the inhibition in vivo at 0.005 % was determined as 20%.

In turn, `Cc1oc(-c2ccccc2)nc1CCc1noc(COc2ccccc2CC(=O)O)n1` [Example 107, 2-[2-[[3-[2-(5-methyl-2-phenyl-4-oxazolyl)ethyl]-1,2,4-oxadiazol-5-yl]methoxy]phenyl]acetic acid] showed a melting point of 120 to 121 °C. Moreover, in data set [1], the change in vivo at 0.005 % is 9% and the inhibition in vivo at 0.005 % stood at 13%.

Compound `O=C(O)Cc1ccccc1OCc1ccc(OCc2csc(-c3ccccc3)n2)cc1` [Example 51, 2-[2-[4-[(2-phenyl-4-thiazolyl)methoxy]benzyloxy]phenyl]acetic acid] yielded a melting point of 115 to 116 °C. In addition, in data set [1], the change in vivo at 0.005 % is 22% and the inhibition in vivo at 0.005 % is 24%.

On to `Cc1oc(-c2ccccc2)nc1COc1cccc(COc2cccc(CC(=O)O)c2)c1` [Example 32, 2-[[3-[3-(5-methyl-2-phenyl-4-oxazolyl)methoxy]benzyloxy]phenyl]acetic acid], for which the melting point fell in the range of 101 to 102 °C. Besides, in data set [1], the change in vivo at 0.01 % is 10% and the inhibition in vivo at 0.01 % was determined as 2%.

`Cc1oc(-c2ccccc2)nc1COc1ccc(COc2ccccc2CC(=O)O)cc1` [Example 11, 2-[2-[4-[(5-methyl-2-phenyl-4-oxazolyl)methoxy]benzyloxy]phenyl]acetic acid]: the melting point lay within 153 to 154 °C. In data set [1], the change in vivo at 0.005 % stood at 18% and the inhibition in vivo at 0.005 % was 23%.

On to `CCOc1ccc(OCc2ccc(OCc3nc(-c4ccccc4)oc3C)cc2)c(CCC(=O)O)c1` [Example 29, 3-[5-ethoxy-2-[4-[(5-methyl-2-phenyl-4-oxazolyl)methoxy]benzyloxy]phenyl]propionic acid], for which the melting point is 115 to 116 °C. In data set [1], the change in vivo at 0.01 % was determined as 20% and the inhibition in vivo at 0.01 % is 21%.

`Cc1oc(-c2ccccc2)nc1COc1ccc(COc2cccc(CC(=O)O)c2)cc1` [Example 1, 2-[3-[4-[(5-methyl-2-phenyl-4-oxazolyl)methoxy]benzyloxy]phenyl]acetic acid]: the melting point lay in the range of 159 to 160 °C. Also, in data set [1], the change in vivo at 0.005 % was 11% and the inhibition in vivo at 0.005 % is 7%.

Turning to `Cc1oc(-c2ccco2)nc1COc1ccc(COc2ncccc2CC(=O)O)cc1` [Example 92, 2-[2-[4-[[2-(2-furyl)-5-methyl-4-oxazolyl]methoxy]benzyloxy]-3-pyridyl]acetic acid], the melting point lay within 151 to 152 °C. In data set [1], the change in vivo at 0.005 % came out at 23% and the inhibition in vivo at 0.005 % is 15%.

The compound `Cc1oc(-c2ccccc2)nc1COc1cc(COc2ccccc2CC(=O)O)on1` [Example 79, 2-[2-[3-(5-methyl-2-phenyl-4-oxazolylmethoxy)-5-isoxazoly]methoxylphenyl]acetic acid] came in with a melting point of 152 to 153 °C. In data set [1], the change in vivo at 0.005 % came to 42% and the inhibition in vivo at 0.005 % turned out to be 39%.

In turn, `Cc1sc(-c2ccccc2)nc1COc1ccc(COc2ncccc2CC(=O)O)cc1` [Example 93, 2-[2-[4-[(5-methyl-2-phenyl-4-thiazolyl)methoxy]benzyloxy]-3-pyridyl]acetic acid] came in with a melting point of 128 to 129 °C. Further, in data set [1], the change in vivo at 0.005 % is 17% and the inhibition in vivo at 0.005 % amounted to 16%.

For the compound `Cc1oc(-c2ccccc2)nc1COc1ccc(COc2ncccc2CC(=O)O)cn1` [Example 88, 2-[2-[[6-[(5-methyl-2-phenyl-4-oxazolyl)methoxy]-3-pyridyl]methoxy]-3-pyridyl]acetic acid], the melting point was in the range of 147 to 148 °C. In addition, in data set [1], the change in vivo at 0.005 % came to 22% and the inhibition in vivo at 0.005 % was found to be 10%.

Take `Cc1oc(-c2ccccc2)nc1CCc1ccc(COc2ccccc2CC(=O)O)cc1` [Example 97, 2-[2-[4-[2-(5-methyl-2-phenyl-4-oxazolyl)ethyl]benzyloxy]phenyl]acetic acid]: the melting point fell in the range of 130 to 131 °C. In data set [1], the change in vivo at 0.005 % is 27% and the inhibition in vivo at 0.005 % was determined as 27%.

Consider `Cc1oc(-c2ccc3ccccc3c2)nc1COc1ccc(COc2ncccc2CC(=O)O)cc1` [Example 130, 2-[2-[4-[5-methyl-2-(2-naphthyl)-4-oxazolylmethoxy]benzyloxy]-3-pyridyl]acetic acid], for which the melting point lay within 155 to 156 °C. Also, in data set [1], the change in vivo at 0.005 % came out at 15% and the inhibition in vivo at 0.005 % was found to be 16%.

As for `Cc1sc(-c2ccccc2)nc1COc1ccc(COc2ccccc2CC(=O)O)cc1` [Example 52, 2-[2-[4-[(5-methyl-2-phenyl-4-thiazolyl)methoxy]benzyloxy]phenyl]acetic acid], the melting point was in the range of 122 to 123 °C. For the same compound, in data set [1], the change in vivo at 0.005 % amounted to 15% and the inhibition in vivo at 0.005 % came out at 26%.

In the case of `COc1cc(COc2ccccc2CC(=O)O)ccc1OCc1nc(-c2ccccc2)oc1C` [Example 48, 2-[2-[3-methoxy-4-[(2-phenyl-5-methyl-4-oxazolyl)methoxy]benzyloxy]phenyl]acetic acid], the melting point is 165 to 166 °C. In data set [1], the change in vivo at 0.005 % was found to be 20% and the inhibition in vivo at 0.005 % is 17%.

As for `Cc1oc(-c2ccccc2)nc1COc1ccc(COc2ncccc2CC(=O)O)cc1` [Example 36, 2-[2-[4-[(5-methyl-2-phenyl-4-oxazolyl)methoxy]benzyloxy]-3-pyridyl]acetic acid], the melting point was in the range of 144 to 145 °C. In addition, in data set [1], the change in vivo at 0.005 % stood at 34% and the inhibition in vivo at 0.005 % is 19%.

In the case of `Cc1oc(-c2ccccc2)nc1COc1ccc(COc2ccc(Cl)cc2CC(=O)O)cc1` [Example 18, 2-[5-chloro-2-[4-[(5-methyl-2-phenyl-4-oxazolyl)methoxy]benzyloxy]phenyl]acetic acid], the melting point lay within 160 to 161 °C. For the same compound, in data set [1], the change in vivo at 0.005 % was found to be 12% and the inhibition in vivo at 0.005 % was 23%.

`COc1cc(COc2ncccc2CC(=O)O)ccc1OCc1nc(-c2ccccc2)oc1C` [Example 91, 2-[2-[3-methoxy-4-[(2-phenyl-5-methyl-4-oxazolyl)methoxy]benzyloxy]-3-pyridyl]acetic acid] showed a melting point of 145 to 146 °C. For the same compound, in data set [1], the change in vivo at 0.005 % came out at 16% and the inhibition in vivo at 0.005 % came out at 6%.

Consider `Cc1oc(-c2ccccc2)nc1COc1cc(COc2cccc(CC(=O)O)c2)ccn1` [Example 62, 2-[3-[2-[(5-methyl-2-phenyl-4-oxazolyl)methoxy]-4-pyridylmethoxy]phenyl]acetic acid], for which the melting point was in the range of 148 to 149 °C. Also, in data set [1], the change in vivo at 0.005 % was 15% and the inhibition in vivo at 0.005 % stood at 9%.

Consider `CCOc1ccc(OCc2ccc(OCc3nc(-c4ccccc4)oc3C)cc2)cc1CCC(=O)O` [Example 7, 3-[2-ethoxy-5-[4-[(5-methyl-2-phenyl-4-oxazolyl)methoxy]benzyloxy]phenyl]propionic acid], for which the melting point lay within 129 to 130 °C. For the same compound, in data set [1], the change in vivo at 0.01 % worked out at 15% and the inhibition in vivo at 0.01 % was determined as 17%.

On to `CCOc1ccc(OCc2ccc(OCc3nc(-c4ccccc4)oc3C)cc2)c(CC(=O)O)c1` [Example 26, 2-[5-ethoxy-2-[4-[(5-methyl-2-phenyl-4-oxazolyl)methoxy]benzyloxy]phenyl]acetic acid], for which the melting point lay within 122 to 123 °C. In data set [1], the change in vivo at 0.01 % came to 16% and the inhibition in vivo at 0.01 % came out at 20%.

Turning to `Cc1oc(-c2ccccc2)nc1CCOc1ccc(COc2ccccc2CC(=O)O)cc1` [Example 58, 2-[2-[4-[2-(5-methyl-2-phenyl-4-oxazolyl)ethoxy]benzyloxy]phenyl]acetic acid], the melting point was in the range of 141 to 142 °C. Besides, in data set [1], the change in vivo at 0.005 % was 21% and the inhibition in vivo at 0.005 % came to 20%.

The compound `Cc1oc(-c2ccccc2)nc1COc1cc(COc2ncccc2CC(=O)O)on1` [Example 129, 2-[2-[[3-[(5-methyl-2-phenyl-4-oxazolyl)methoxy]-5-isoxazolyl]methoxy]-3-pyridyl]acetic acid] displayed a melting point of 129 to 130 °C. Further, in data set [1], the change in vivo at 0.005 % was 25% and the inhibition in vivo at 0.005 % was 14%.

`Cc1ccc(OCc2ccc(OCc3nc(-c4ccccc4)oc3C)cc2)c(CC(=O)O)c1` [Example 15, 2-[5-methyl-2-[4-[(5-methyl-2-phenyl-4-oxazolyl)methoxy]benzyloxy]phenyl]acetic acid] showed a melting point of 115 to 116 °C. Besides, in data set [1], the change in vivo at 0.005 % is 4% and the inhibition in vivo at 0.005 % is 25%.
